From US9221786B2, “2-fluorophenyl propionic acid derivatives” (LTT BIO-PHARMA CO., LTD., priority 2011, dated 2015)

How the values were obtained:
Male Wister rats [1] = experiment: Gastric ulceration after oral administration (lesion index); format: in vivo, rat; details: rats fasted 18 hours, stomach excised after 8 hours, FIG. 1, versus loxoprofen (1)
Experimental: This test was carried out according to the method described in Biochem. Pharmacol., 67; 575-85 (2004).
Male Wister rats (weight: 180 to 200 g) were fasted for 18 hours, and a test compound was orally administered to the rats. After 8 hours, the stomach was excised and the area of ulcers found in the stomach was measured. The total area of all ulcers was represented as the lesion index.

Male Wister rats [2] = experiment: Effect on carrageenin-induced edema; format: in vivo, rat; details: oral, 1 hour before carrageenin, 3 and 6 hours, FIG. 2
Experimental: B: Effect on Carrageenin-Induced Edema
This test was carried out according to the method described in Br. J. Pharmacol., 151; 285-91 (2007).
Male Wister rats (weight: 180 to 200 g) were fasted for 18 hours, and a test compound was orally administered to the rats. After 1 hour, 100 μL of 1% carrageenin (dissolved in physiological saline) was subcutaneously injected into the left footpad to induce edema.
Before carrageenin administration, and three hours and six hours after carrageenin administration, the leg volume was measured using a plethysmometer.
The edema inhibition rate is calculated on the basis of the following equation. Inhibition rate(%)=100−(edema volume when a compound was administrated/edema volume when a vehicle was administrated)×100.

COX-2 = molecular target: T1, COX-2 (Homo sapiens, UniProt P35354); experiment: Human whole blood assay, in vitro COX-2 assay (LPS-stimulated, PGE2 by EIA); format: cell-based; details: for COX Selectivity COX-1/COX-2: ratio of IC50 COX-1 / IC50 COX-2, human whole blood; for selective inhibitory action on COX-2 activity: compared with loxoprofen (1), Table 12
T1 construct: incubated at 37° C. for 24 hours to induce COX-2; from tissue; host or cells: heparinised human whole blood from healthy donors, stimulated with LPS
T1 sequence (P35354 18-604): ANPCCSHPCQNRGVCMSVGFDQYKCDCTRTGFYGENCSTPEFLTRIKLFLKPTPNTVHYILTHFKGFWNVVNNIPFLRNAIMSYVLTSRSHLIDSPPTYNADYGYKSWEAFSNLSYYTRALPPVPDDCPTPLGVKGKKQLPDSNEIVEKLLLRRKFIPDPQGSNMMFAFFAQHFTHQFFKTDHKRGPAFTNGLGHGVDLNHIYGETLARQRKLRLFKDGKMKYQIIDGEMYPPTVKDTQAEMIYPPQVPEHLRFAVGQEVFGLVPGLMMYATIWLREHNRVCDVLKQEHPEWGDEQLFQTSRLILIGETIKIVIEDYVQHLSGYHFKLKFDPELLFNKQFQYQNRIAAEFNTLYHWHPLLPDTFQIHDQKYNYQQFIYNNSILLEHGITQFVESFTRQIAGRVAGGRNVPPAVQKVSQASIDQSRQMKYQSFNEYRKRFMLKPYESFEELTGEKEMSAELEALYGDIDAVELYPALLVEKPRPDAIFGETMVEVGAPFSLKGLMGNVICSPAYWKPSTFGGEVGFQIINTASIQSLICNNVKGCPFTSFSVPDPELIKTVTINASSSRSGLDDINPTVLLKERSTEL
Experimental: Human Whole Blood Assay (In Vitro)
This test was carried out according to the method described in Inflamm. Res., 45: 68-74 (1996).
As blood donors, persons who were healthy on the day of collecting and had not taken NSAIDs for at least a week or more were selected.
Blood was collected in test tubes treated with heparin (Venoject II blood collection tubes, produced by TERUMO CORPORATION). To the test tubes, inflammatory stimulant lipopolysaccharide (LPS) [Sigma-Aldrich Japan Inc., #L2880 from E. coli 055:B5; diluted with phosphate buffered saline (PBS) at a final concentration of 100 μg/mL] was added. Aliquots of 500 μL were dispensed in the tubes, and 2 μL of a solution of a test compound (final concentration: 0.1 μM to 1000 μM) in a suitable solvent (DMSO or MilliQ water) was added to the tubes and incubated at 37° C. for 24 hours to induce COX-2.
After the incubation, the sample was centrifuged at 12,000×g for 5 minutes to separate blood serum. To remove protein from blood, 100 μL of obtained blood serum was added to 400 μL of ethanol, and the mixture was centrifuged again at 12,000×g for 5 minutes. PGE2 in the supernatant was quantitatively determined using an enzyme immunoassay (EIA) kit [Cayman (Ann, Arbor, Mich., USA) #514040] according to the attached protocol.

[3] = compared with loxoprofen; earlier work, Patent Literature 1; cited from earlier work
[4] = earlier work of the inventors, Patent Literature 1; cited from earlier work

Compound	gastric ulceration / gastric damage (Male Wister rats [1])	anti-inflammatory effect (edema inhibition) (Male Wister rats [2])	COX Selectivity COX-1/COX-2 (COX-2)	selective inhibitory action on COX-2 activity (COX-2)	anti-inflammatory effect [3]	ulceration action [4]
CC(C(=O)O)c1ccc(Cc2ccoc2)cc1F (racemic) [Compound 22a, 2-[2-fluoro-4-(furan-3-ylmethyl)-phenyl]propionic acid]	significantly reducing gastric damage	same level of anti-inflammatory effect as loxoprofen (1)	7.6			
CC(C(=O)O)c1ccc(CC2CCCC2=O)cc1 (stereo not drawn) [Compound 1, Loxoprofen, reference compound]			2.3			
CC(C(=O)O)c1ccc(NC2CCCC2)cc1F (stereo not drawn) [Compound 11a, 2-[4-(cyclopentylamino)-2-fluoro-phenyl]propionic acid]	gastric ulceration was significantly reduced	excellent anti-inflammatory effect	0.7	weaker selective inhibitory action on COX-2 activity than loxoprofen (1)		
CC(C(=O)O)c1ccc(OC2CCCC2)cc1F (racemic) [Compound 14, 2-[4-(cyclopentyloxy)-2-fluorophenyl]-propionic acid]	gastric ulceration was significantly reduced	excellent anti-inflammatory effect	0.1	weaker selective inhibitory action on COX-2 activity than loxoprofen (1)		
CC(C(=O)O)c1ccc(CC2CCCC2=O)cc1F (stereo not drawn) [Compound 2, 2-fluoroloxoprofen]			1.7		same anti-inflammatory effect as loxoprofen	low ulceration action
CC(C(=O)O)c1ccc(Cc2ccco2)cc1F (stereo not drawn) [Compound 21a, 2-[2-fluoro-4-(furan-2-ylmethyl)-phenyl]propionic acid]	significantly reducing gastric damage	same level of anti-inflammatory effect as loxoprofen (1)	5.3			
